The source of these data is US20260083761A1, “PHARMACEUTICAL COMPOSITION FOR TREATING BRAIN DISEASE, NEURONAL MIGRATION PROMOTER, AND USE THEREOF” (PUBLIC UNIVERSITY CORPORATION NAGOYA CITY UNIVERSITY, priority 2022, published 2026).

The subject of test [1] is V-SVZ-derived new neurons co-cultured with BV2 cells. Kind of test: Experiment 10: co-culture of V-SVZ-derived new neurons with LPS-stimulated BV2 cells; PSA signal and time-lapse imaging. Format: cell-based, mouse. The following applies: inhibitor final concentration 1 mM, vs PBS (LPS+) and control (LPS−).
In another test the test system is V-SVZ-derived neurons. In words: Experiment 12: Zanamivir in Nestin-CreERT2;NSE-DTA mice with new neurons removed; FFT and double-positive cells. It counts as in vivo, mouse. The following applies: Nestin-CreERT2;NSE-DTA group, unlike NSE-DTA group; Zanamivir 50 mg/kg i.p. for 14 days from day 7 after injury; FFT 14 days after end of administration.
The target in another test is T1, Neu4 (Homo sapiens, UniProt Q8WWR8).
T1 sequence (Q8WWR8 1-496 isoform Q8WWR8-2): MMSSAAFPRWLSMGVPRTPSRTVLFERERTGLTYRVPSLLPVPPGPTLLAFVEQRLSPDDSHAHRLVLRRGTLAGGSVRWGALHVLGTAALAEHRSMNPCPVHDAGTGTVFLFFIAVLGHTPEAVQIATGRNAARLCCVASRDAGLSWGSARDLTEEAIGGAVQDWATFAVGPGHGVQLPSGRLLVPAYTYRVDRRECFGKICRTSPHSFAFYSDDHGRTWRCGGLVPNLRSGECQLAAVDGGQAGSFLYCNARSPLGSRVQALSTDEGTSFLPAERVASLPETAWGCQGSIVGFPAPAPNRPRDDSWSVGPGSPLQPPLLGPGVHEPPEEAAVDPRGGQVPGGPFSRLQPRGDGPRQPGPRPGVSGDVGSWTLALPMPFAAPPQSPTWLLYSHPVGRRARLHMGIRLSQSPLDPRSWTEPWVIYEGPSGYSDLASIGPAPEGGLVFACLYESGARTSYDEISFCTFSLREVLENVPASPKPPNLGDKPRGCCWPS
As to conditions: human neuraminidases; reported; cited from earlier work.

Test [2] relates to new neurons migrating to the brain injury site. In words: Experiment 13: Zanamivir in common marmosets with brain injury; PSA-NCAM and Dcx immunostaining. Format: in vivo, common marmoset (Callithrix jacchus). The following applies: common marmoset, 50 mg/kg i.p. for 21 days from day 7 after injury, fixed 28 days after injury.
For another test, the target named is T2, Neu3 (Homo sapiens, UniProt Q9UQ49).
T2 sequence (Q9UQ49 1-461 isoform Q9UQ49-2): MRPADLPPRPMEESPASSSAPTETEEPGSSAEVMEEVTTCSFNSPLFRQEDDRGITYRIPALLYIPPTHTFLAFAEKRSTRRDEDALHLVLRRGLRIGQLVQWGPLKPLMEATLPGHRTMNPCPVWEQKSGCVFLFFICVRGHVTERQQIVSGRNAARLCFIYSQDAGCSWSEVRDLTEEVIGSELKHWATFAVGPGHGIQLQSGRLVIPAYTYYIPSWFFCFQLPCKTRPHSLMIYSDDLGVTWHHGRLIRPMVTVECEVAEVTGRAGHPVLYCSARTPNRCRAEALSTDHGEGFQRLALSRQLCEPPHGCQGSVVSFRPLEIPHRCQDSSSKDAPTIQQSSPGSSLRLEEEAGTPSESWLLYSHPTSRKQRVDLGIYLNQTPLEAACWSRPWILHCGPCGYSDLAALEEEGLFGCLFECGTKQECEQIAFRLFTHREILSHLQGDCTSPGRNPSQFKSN
As to conditions: human neuraminidases; reported; cited from earlier work.

With `CC(=O)N[C@H]1[C@H]([C@H](O)[C@H](O)CO)OC(C(=O)O)=C[C@@H]1N=C(N)N` [Zanamivir], the PSA signal intensity result in test [1] is “maintained”. The “left-side slipping-off rate in the FFT” value with V-SVZ-derived neurons was “no improvement”. Besides, the “inhibitory effect on human Neu4” value on Neu4 is “inhibitory effect has been reported”. The “localization of new neurons (distance of Dcx-positive cells from the injury site)” value in test [2] (vs control) is “localized closer to the injury site”. In test [2] (vs non-administration control), the “PSA signal intensity of new neurons localized in the striatum on the injury side” value is “maintain”. Further, the “inhibitory effect on human Neu3” value on Neu3 is given as “inhibitory effect has been reported”.
Turning to `CC(=O)N[C@H]1[C@H]([C@H](O)[C@H](O)CO)OC(C(=O)O)=C[C@@H]1O` [DANA, 2,3-dehydro-2-deoxy-N-acetylneuraminic acid], the PSA signal intensity entry in test [1] is “maintained”.
